Measured values taken from ChEMBL document CHEMBL1148885, “Modeling assisted rational design of novel, potent, and selective pyrrolopyrimidine DPP-4 inhibitors” (Bioorg Med Chem Lett, 2007).

How the values were obtained:
Dipeptidyl peptidase 9 = Dipeptidyl peptidase 9 (Homo sapiens, UniProt Q86TI2)
Dipeptidyl peptidase 8 = Dipeptidyl peptidase 8 (Homo sapiens, UniProt Q6V1X1); experiment: Inhibition of DPP8
Dipeptidyl peptidase 2 = Dipeptidyl peptidase 2 (Homo sapiens, UniProt Q9UHL4); experiment: Inhibition of QPP
Dipeptidyl peptidase 4 = Dipeptidyl peptidase 4 (Homo sapiens, UniProt P27487)
Chain of Dipeptidyl peptidase 4 (P27487 whole entry): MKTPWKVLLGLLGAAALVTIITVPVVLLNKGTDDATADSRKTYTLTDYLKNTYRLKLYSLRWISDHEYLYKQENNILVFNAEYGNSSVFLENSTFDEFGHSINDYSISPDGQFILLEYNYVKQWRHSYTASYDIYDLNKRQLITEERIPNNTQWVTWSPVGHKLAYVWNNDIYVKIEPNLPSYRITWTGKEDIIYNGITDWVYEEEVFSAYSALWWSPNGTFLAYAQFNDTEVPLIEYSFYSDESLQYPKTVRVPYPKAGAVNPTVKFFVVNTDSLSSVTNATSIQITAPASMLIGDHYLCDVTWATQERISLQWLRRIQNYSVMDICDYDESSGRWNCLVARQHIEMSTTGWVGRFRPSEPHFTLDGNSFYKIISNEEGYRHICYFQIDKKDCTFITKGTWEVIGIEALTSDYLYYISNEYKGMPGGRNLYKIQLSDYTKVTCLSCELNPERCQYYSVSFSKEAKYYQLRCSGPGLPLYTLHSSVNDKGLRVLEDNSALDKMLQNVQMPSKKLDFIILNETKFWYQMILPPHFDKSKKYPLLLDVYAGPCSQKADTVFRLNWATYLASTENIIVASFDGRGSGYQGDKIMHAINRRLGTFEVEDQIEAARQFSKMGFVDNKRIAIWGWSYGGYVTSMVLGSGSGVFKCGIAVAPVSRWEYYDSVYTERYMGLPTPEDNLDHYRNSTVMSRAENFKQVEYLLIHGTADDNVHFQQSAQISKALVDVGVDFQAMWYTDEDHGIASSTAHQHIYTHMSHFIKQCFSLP

Chain of Dipeptidyl peptidase 8 (Q6V1X1 whole entry): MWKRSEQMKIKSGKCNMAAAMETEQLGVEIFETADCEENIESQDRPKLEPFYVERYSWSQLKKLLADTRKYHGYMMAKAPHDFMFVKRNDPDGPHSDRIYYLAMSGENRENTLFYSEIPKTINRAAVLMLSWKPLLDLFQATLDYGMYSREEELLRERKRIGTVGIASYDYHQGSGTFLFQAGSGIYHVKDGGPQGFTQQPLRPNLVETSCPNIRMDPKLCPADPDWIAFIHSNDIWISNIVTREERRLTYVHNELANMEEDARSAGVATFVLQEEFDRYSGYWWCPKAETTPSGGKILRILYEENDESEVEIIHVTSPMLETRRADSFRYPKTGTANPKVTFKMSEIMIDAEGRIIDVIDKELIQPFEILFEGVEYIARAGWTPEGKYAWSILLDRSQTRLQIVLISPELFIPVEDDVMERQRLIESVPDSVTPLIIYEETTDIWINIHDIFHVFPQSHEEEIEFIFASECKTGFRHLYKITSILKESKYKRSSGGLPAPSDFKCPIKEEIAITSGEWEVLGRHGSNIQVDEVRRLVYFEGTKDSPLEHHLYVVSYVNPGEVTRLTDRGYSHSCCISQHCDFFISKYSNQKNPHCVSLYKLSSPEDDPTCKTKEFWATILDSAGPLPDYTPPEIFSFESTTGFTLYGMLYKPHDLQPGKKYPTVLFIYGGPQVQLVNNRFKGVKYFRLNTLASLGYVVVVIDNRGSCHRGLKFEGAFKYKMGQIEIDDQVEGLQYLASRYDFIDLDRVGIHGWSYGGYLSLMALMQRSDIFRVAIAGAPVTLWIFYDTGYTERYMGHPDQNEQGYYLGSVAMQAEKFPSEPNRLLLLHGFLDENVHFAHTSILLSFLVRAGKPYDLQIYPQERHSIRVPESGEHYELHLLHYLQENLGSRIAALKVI
Chain of Dipeptidyl peptidase 9 (Q86TI2 whole entry): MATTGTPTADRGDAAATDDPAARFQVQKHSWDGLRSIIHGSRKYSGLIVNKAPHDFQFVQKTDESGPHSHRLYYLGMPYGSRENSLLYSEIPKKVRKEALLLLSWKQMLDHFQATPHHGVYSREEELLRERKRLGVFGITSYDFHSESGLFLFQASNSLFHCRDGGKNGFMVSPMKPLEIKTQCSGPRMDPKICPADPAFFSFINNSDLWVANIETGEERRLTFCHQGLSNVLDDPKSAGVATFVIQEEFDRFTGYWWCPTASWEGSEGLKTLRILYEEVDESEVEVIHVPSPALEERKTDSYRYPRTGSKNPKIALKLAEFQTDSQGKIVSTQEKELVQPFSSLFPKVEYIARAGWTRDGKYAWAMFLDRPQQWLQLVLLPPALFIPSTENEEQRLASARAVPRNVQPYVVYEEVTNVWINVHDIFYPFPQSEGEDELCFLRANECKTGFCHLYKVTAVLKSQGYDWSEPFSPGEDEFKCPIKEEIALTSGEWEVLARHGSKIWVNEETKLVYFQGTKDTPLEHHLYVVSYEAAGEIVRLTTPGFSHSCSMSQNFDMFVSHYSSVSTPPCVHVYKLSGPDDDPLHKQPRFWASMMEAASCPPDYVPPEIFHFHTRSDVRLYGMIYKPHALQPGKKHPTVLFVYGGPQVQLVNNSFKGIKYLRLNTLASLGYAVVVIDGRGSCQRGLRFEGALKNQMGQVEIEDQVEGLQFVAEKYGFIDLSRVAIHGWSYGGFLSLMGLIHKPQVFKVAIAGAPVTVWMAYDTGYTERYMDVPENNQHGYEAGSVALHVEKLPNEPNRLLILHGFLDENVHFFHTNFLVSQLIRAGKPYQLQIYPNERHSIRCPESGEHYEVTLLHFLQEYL

IC50 (Dipeptidyl peptidase 9) | IC50 (Dipeptidyl peptidase 8) | IC50 (Dipeptidyl peptidase 2) | IC50 (Dipeptidyl peptidase 4) | SMILES
> 100 µM | > 100 µM | > 100 µM |  | N[C@H]1C[C@@H](N2CCn3c(nnc3C(F)(F)F)C2)CC[C@@H]1c1cc(F)c(F)cc1F
 |  | 61 µM | 0.0053 µM | N[C@H]1C[C@@H](N2Cc3cnc(C4CC4)nc3C2)CC[C@@H]1c1cc(F)c(F)cc1F
 |  | > 100 µM | 0.00067 µM | N[C@H]1C[C@@H](N2Cc3cncnc3C2)CC[C@@H]1c1cc(F)c(F)cc1F
 |  | 68 µM | 0.0066 µM | N[C@H]1C[C@@H](N2Cc3ccccc3C2)CC[C@@H]1c1cc(F)c(F)cc1F
